Test results from patent US5202348A, “Thiarubrine antifungal agents” (The University of British Columbia, priority 1990, dated 1993).
Values after ≈ are worked out from the molar mass of the structure shown. Where two headings read alike, the source gives them in different places.

How the values were obtained:
E. coli [1] = assay: Growth inhibition of E. coli during 24 hours exposure; format: cell-based, Escherichia coli; conditions: Escherichia coli, 24 h, read-out: Minimal concentration causing 50% growth inhibition
Experimental: (§1) Doses inhibiting growth in 50% were estimated by plotting concentration o
(§2) a logarithmic scale and percent of growth inhibition for 24 hours exposur
(§3) on a probability scale.

bacteria = assay: Anti-bacterial activity (summary); format: cell-based; conditions: Table 14
P. aeruginosa = assay: Growth inhibition of P. aeruginosa during 24 hours exposure; format: cell-based, Pseudomonas aeruginosa; conditions: Pseudomonas aeruginosa, 24 h
Experimental: as §1, §2, §3

P815 mastocytoma = assay: LC50 (24 hrs.), doses required to inhibit growth in 50%, different method; format: cell-based; conditions: Mus musculus, P815, 24 h, read-out: LC50 (24 hrs.), dose required to inhibit growth in 50%
C. albicans [2] = assay: Growth inhibition of C. albicans during 24 hours exposure; format: cell-based, Candida albicans; conditions: Candida albicans, 24 h, read-out: Minimal concentration causing 100% growth inhibition
bacteriophage M13 = conditions: cited from earlier work
Aspergillus fumigatus [3] = assay: Sensitivity of Aspergillus fumigatus, agar diffusion method; format: cell-based; conditions: read-out: Zone of Growth Inhibition
Text: Results were obtained by agar diffusion method. Disc diameter - 6 mm. -* = no zone over disc diameter.

bacteriophage T4 = conditions: in UV-A only; cited from earlier work
Aspergillus = assay: Anti-Aspergillus activity (summary); format: cell-based; conditions: Table 14;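 further: Letter grades where Y means active and y means less active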
Candida albicans = conditions: concentrations comparable to those of amphotericin B; cited from earlier work
mouse cells = conditions: cited from earlier work
L1210 = assay: Growth inhibition of L1210 during 24 hours exposure; format: cell-based, Mouse; conditions: Mus musculus, L1210, 24 h, read-out: Concentration causing 50% growth inhibition
Experimental: (§4) L1210 = Mouse lymphocytic leukemia
as §1, §2, §3

[4] = as above; format: cell-based, Mouse; conditions: mouse, l1210 cells; Table 2; read-out: Toxicity Index, LC50 L1210 / C. albicans
Experimental: as §4, §1, §2, §3

E. coli [5] = assay: Growth inhibition of E. coli during 24 hours exposure; format: cell-based, Escherichia coli; conditions: Escherichia coli, 24 h, read-out: Minimal concentration causing 100% growth inhibition
Sindbis virus = conditions: only in presence of UV-A radiation; cited from earlier work
WEHI-3 = assay: Growth inhibition of WEHI-3 during 24 hours exposure; format: cell-based, Mouse; conditions: Mus musculus, WEHI-3, 24 h, read-out: Concentration causing 50% growth inhibition
Experimental: (§5) WEHl3 = Mouse myelomonocyte
as §1, §2, §3

[6] = as above; format: cell-based, Mouse; conditions: mouse, wehi-3 cells; Table 2; read-out: Toxicity Index, LC50 WEHI-3 / LC50 C. albicans
Experimental: as §5, §1, §2, §3

Bacillus subtilis = conditions: cited from earlier work
murine cytomegalovirus = conditions: only in presence of UV-A radiation; cited from earlier work
C. albicans [7] = assay: LC50 (24 hrs.), doses required to inhibit growth in 50%, different method; format: cell-based, Candida albicans; conditions: Candida albicans, 24 h, read-out: LC50 (24 hrs.), dose required to inhibit growth in 50%
Text: Doses Required to Inhibit Growth of C. albicans
in 50% During 24 hrs. (ng/ml)

Candida = assay: Anti-Candida activity (summary); format: cell-based; conditions: Table 14;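 further: Letter grades where Y means active and y means less active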
Hycobacteria sp. = conditions: cited from earlier work
[8] = tested on: murine cytomegalovirus and Sindbis virus; conditions: phototoxic activity; cited from earlier work
C. albicans [9] = assay: Growth inhibition of C. albicans during 24 hours exposure; format: cell-based, Candida albicans; conditions: Candida albicans, 24 h
Experimental: as §1, §2, §3

Coenorhabditis elogans = conditions: cited from earlier work
Escherichia coli = conditions: cited from earlier work
3T3 = assay: Growth inhibition of 3T3 during 24 hours exposure; format: cell-based, Mouse; conditions: Mus musculus, NIH3T3, 24 h, read-out: Concentration causing 50% growth inhibition
Experimental: (§6) 3T3 = Mouse fibroblasts
as §1, §2, §3

[10] = Growth inhibition of 3T3 during 24 hours exposure; format: cell-based, Mouse; conditions: mouse, 3t3 cells; Table 2; read-out: Toxicity Index, LC50 3T3 / LC50 C. albicans
Experimental: as §6, §1, §2, §3

P815 = assay: Growth inhibition of P815 mastocytoma during 24 hours exposure; format: cell-based, Mouse
Experimental: (§7) P815 = Mouse mastocytoma […]
as §2, §3

[11] = as above; format: cell-based, Mouse; conditions: mouse, p815 cells
Experimental: as §7, §2, §3

Aspergillus fumigatus [12] = conditions: concentrations comparable to those of amphotericin B; cited from earlier work
[13] = read-out: Minimal concentration causing 50% growth inhibition

For C=CC#CC#CC1=CC=C(C#CC)SS1 [Thiarubrine A, 3 - (1- -propynyl) 6 (5-hexen-3-yn-1-ynyl)1,2-dithiacyclohexa-3,5-diene], the IC50 (E. coli [1]) was 0.18 µg/mL (≈ 0.788 µM), the Anti-bacterial (bacteria) was “Y” and the IC50 (P. aeruginosa; [13]) was 0.68 µg/mL (≈ 2.98 µM). The MIC (P. aeruginosa; read-out: Minimal concentration causing 100% growth inhibition) was 2.5 µg/mL (≈ 10.9 µM), the IC50 (P815 mastocytoma) was 0.081 µg/mL (≈ 0.355 µM) and the MIC (C. albicans [2]) was 0.16 µg/mL (≈ 0.701 µM). The Effect on bacteriophage (bacteriophage M13) was “completely unaffected”, the zone of inhibition at 0.01 µg/disc (Aspergillus fumigatus [3]) was 8 mm and the zone of inhibition at 0.1 µg/disc (Aspergillus fumigatus [3]) was 19 mm. The zone of inhibition at 1 µg/disc (Aspergillus fumigatus [3]) was 27 mm, the zone of inhibition at 10 µg/disc (Aspergillus fumigatus [3]) was 27 mm and the Effect on bacteriophage (bacteriophage T4) was “slightly affected”. The Anti-Aspergillus (Aspergillus) was “Y”, the Antifungal activity (Candida albicans) was “strong antifungal activity” and the “Sensitivity of mouse cells” value (mouse cells; in presence of UV-A) was “moderately sensitive”. For the same molecule, the “Sensitivity of mouse cells” value (mouse cells; in the dark) was “somewhat less sensitive”, the IC50 (L1210) was 0.035 µg/mL (≈ 0.153 µM) and the selectivity ratio at 24 h [4] was 1. For the same molecule, the MIC (E. coli [5]) was 0.625 µg/mL (≈ 2.74 µM), the Sensitivity of virus (Sindbis virus) was “extremely sensitive” and the IC50 (WEHI-3) was 0.027 µg/mL (≈ 0.118 µM). The selectivity ratio at 24 h [6] was 1, the Cytotoxic activity (Bacillus subtilis) was “cytotoxic activity” and the Sensitivity of virus (murine cytomegalovirus) was “extremely sensitive”. The IC50 (C. albicans [7]) was 0.04 µg/mL (≈ 0.175 µM), the Anti-Candida (Candida) was “Y” and the Cytotoxic activity (Hycobacteria sp.) was “cytotoxic activity”. The Order of potency [8] was “alpha-terthienyl thiarubrine-A > phenylheptatriyne > ACBP-thiophene > thiophene-A”, the IC50 (C. albicans [9]; read-out: Concentration causing 50% growth inhibition) was 0.028 µg/mL (≈ 0.123 µM) and the IC50 (C. albicans [9]; [13]) was 0.028 µg/mL (≈ 0.123 µM). The Cytotoxic activity (Coenorhabditis elogans) was “cytotoxic activity”, the Cytotoxic activity (Escherichia coli) was “cytotoxic activity” and the IC50 (3T3) was 0.45 µg/mL (≈ 1.97 µM). The selectivity ratio at 24 h [10] was 12, the “Ratio of concentration needed to inhibit growth in 50%, P815 vs C. albicans” value (P815; 50% growth inhibition, Table 4) was “the same” and the IC50 (P815; Mus musculus, P815, 24 h, read-out: Concentration causing 50% growth inhibition) was 0.035 µg/mL (≈ 0.153 µM). It also gave an IC50 (P815; Mus musculus, P815, 24 h, read-out: Minimal concentration causing 50% growth inhibition) of 0.035 µg/mL (≈ 0.153 µM), an IC100 (P815; Mus musculus, P815, 24 h, read-out: Minimal concentration causing 100% growth inhibition) of 0.625 µg/mL and a selectivity ratio at 24 h ([11]; 100% growth inhibition, Table 3, read-out: Ratio of minimal concentration causing 100% growth inhibition, P815 line vs C. albicans) of about 4. For the same molecule, the selectivity ratio at 24 h ([11]; Table 2, read-out: Toxicity Index, LC50 P815 / LC50 C. albicans) was 1 and the Antifungal activity (Aspergillus fumigatus [12]) was “strong antifungal activity”.
